This passage reports EC50 results from US20140031278A1, “Novel Glucagon Analogues” (NOVO NORDISK A/S, priority 2011, published 2014).

*1 amine or outer side, *2 acyl side, *3 side chain or, on linkers, in order; H or OH if unused. Where a SMILES comes first, the peptide text is derived from it. Side-chain parts run from the residue outwards. γGlu = O=C(O)[C@H](CCC(=O)[*:2])N[*:1]; εLys = N[C@@H](CCCCN[*:1])C(=O)[*:2]

In the assay the target is T1, glucagon receptor (Homo sapiens, UniProt P47871).
T1 construct: expressed in transfected cells
T1 sequence (P47871 26-477): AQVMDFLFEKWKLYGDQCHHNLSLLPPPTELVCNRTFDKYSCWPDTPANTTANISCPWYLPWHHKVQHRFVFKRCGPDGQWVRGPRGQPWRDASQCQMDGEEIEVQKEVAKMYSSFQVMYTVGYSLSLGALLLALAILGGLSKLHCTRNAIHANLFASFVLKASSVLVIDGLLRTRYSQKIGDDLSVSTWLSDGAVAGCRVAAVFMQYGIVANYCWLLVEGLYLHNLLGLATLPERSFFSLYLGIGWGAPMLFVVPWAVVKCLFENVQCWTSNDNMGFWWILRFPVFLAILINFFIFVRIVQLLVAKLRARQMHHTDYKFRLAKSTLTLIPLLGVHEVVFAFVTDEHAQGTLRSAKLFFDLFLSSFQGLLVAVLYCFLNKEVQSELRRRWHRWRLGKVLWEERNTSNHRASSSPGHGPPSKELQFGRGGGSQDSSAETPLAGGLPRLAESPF
In words: Assay (I) Glucagon activity (cAMP biosensor, FLIPR). Type of assay: cell-based. The settings on record: HEK-293 cells with cloned glucagon receptor and cAMP biosensor; end point after 6 minutes. As to the method:
The glucagon receptor was cloned into HEK-293 cells having a membrane bound cAMP biosensor (ACTOne™). The cells (14000 per well) were incubated (37° C., 5% CO2) overnight in 384-well plates. Next day the cells were loaded with a calcium responsive dye that only distributed into the cytoplasm. Probenecid, an inhibitor of the organic anion transporter, was added to prevent the dye from leaving the cell. A PDE inhibitor was added to prevent formatted cAMP from being degraded, The plates were placed into a […] and the glucagon analogues were added. End point data were collected after 6 minutes. An increase in intracellular cAMP was proportional to an increased in calcium concentrations in the cytoplasm. When calcium was bound the dry a fluorescence signal was generated. EC50-values were calculated in Prism5.
Usually EC50 stands for the concentration needed to bring the measured effect to its halfway point. As to `CC(C)C[C@H](NC(=O)[C@H](Cc1c[nH]c2ccccc12)NC(=O)[C@H](CCCCNC(=O)CC[C@H](NC(=O)CC[C@H](NC(=O)CC[C@H](NC(=O)CC[C@H](N)C(=O)O)C(=O)O)C(=O)O)C(=O)O)NC(=O)[C@@H](NC(=O)[C@H](Cc1ccccc1)NC(=O)[C@H](CC(=O)O)NC(=O)[C@H](C)NC(=O)[C@H](C)NC(=O)[C@H](CCCNC(=N)N)NC(=O)[C@H](CCCNC(=N)N)NC(=O)[C@@H](NC(=O)[C@H](CC(=O)O)NC(=O)[C@H](CC(C)C)NC(=O)[C@H](Cc1ccc(O)cc1)NC(=O)[C@H](CCCCN)NC(=O)[C@H](CO)NC(=O)[C@H](Cc1ccc(O)cc1)NC(=O)[C@H](CC(=O)O)NC(=O)[C@H](CO)NC(=O)[C@@H](NC(=O)[C@H](Cc1ccccc1)NC(=O)[C@@H](NC(=O)CNC(=O)[C@H](Cc1c[nH]cn1)NC(=O)[C@H](CO)NC(=O)[C@@H](N)Cc1c[nH]cn1)[C@@H](C)O)[C@@H](C)O)[C@@H](C)O)C(C)C)C(=O)N[C@@H](CC(C)C)C(=O)N[C@@H](CO)C(=O)N[C@H](C(=O)O)[C@@H](C)O` [Example 7, N^ε24-[(4S)-4-[[(4S)-4-[[(4S)-4-[[(4S)-4-amino-4-carboxybutanoyl]amino]-4-carboxybutanoyl]amino]-4-carboxybutanoyl]amino]-4-carboxybutanoyl]-[His3,Thr16,Ala20,Lys24,Leu27,Ser28]-Glucagon] (H-HSHGTFTSDYSKYLDTRRAADFVK([γGlu-γGlu-γGlu-γGlu])WLLST-OH), it took 0.0243 nM to reach a half-maximal effect (EC50).
In the case of `CC(=O)N[C@@H](CCC(=O)N[C@@H](CCC(=O)N[C@@H](CCC(=O)N[C@@H](CCC(=O)NCCCC[C@H](N)C(=O)NCCCC[C@H](NC(=O)[C@H](CC(=O)O)NC(=O)[C@H](CC(C)C)NC(=O)[C@H](Cc1ccc(O)cc1)NC(=O)[C@H](CCCCN)NC(=O)[C@H](CO)NC(=O)[C@H](Cc1ccc(O)cc1)NC(=O)[C@H](CC(=O)O)NC(=O)[C@H](CO)NC(=O)[C@@H](NC(=O)[C@H](Cc1ccccc1)NC(=O)[C@@H](NC(=O)CNC(=O)[C@H](CCC(N)=O)NC(=O)[C@H](CO)NC(=O)[C@@H](N)Cc1c[nH]cn1)[C@@H](C)O)[C@@H](C)O)C(=O)N[C@@H](CCCNC(=N)N)C(=O)N[C@@H](C)C(=O)N[C@@H](C)C(=O)N[C@@H](CCC(N)=O)C(=O)N[C@@H](CC(=O)O)C(=O)N[C@@H](Cc1ccccc1)C(=O)N[C@H](C(=O)N[C@@H](CCC(N)=O)C(=O)N[C@@H](Cc1c[nH]c2ccccc12)C(=O)N[C@@H](CC(C)C)C(=O)N[C@@H](CC(C)C)C(=O)N[C@@H](CO)C(=O)N[C@H](C(N)=O)[C@@H](C)O)C(C)C)C(=O)O)C(=O)O)C(=O)O)C(=O)O` [Example 59] (H-HSQGTFTSDYSKYLDK([εLys-γGlu-γGlu-γGlu-γGlu-Ac])RAAQDFVQWLLST-NH2) it was 0.013 nM; in that of `CC(=O)N[C@@H](CCC(=O)N[C@@H](CCC(=O)N[C@@H](CCC(=O)N[C@@H](CCC(=O)NCCCC[C@H](NC(=O)[C@@H](NC(=O)[C@H](Cc1ccccc1)NC(=O)[C@H](CC(=O)O)NC(=O)[C@H](CCC(N)=O)NC(=O)[C@H](C)NC(=O)[C@H](CCCNC(=N)N)NC(=O)[C@H](CCCNC(=N)N)NC(=O)[C@H](CC(C)C)NC(=O)[C@H](CC(=O)O)NC(=O)[C@H](CC(C)C)NC(=O)[C@H](Cc1ccc(O)cc1)NC(=O)[C@H](CCCCN)NC(=O)[C@H](CO)NC(=O)[C@@H](NC(=O)[C@H](CC(=O)O)NC(=O)[C@H](CO)NC(=O)[C@@H](NC(=O)[C@H](Cc1ccccc1)NC(=O)[C@@H](NC(=O)CNC(=O)[C@H](CCC(N)=O)NC(=O)[C@H](CO)NC(=O)[C@@H](N)Cc1c[nH]cn1)[C@@H](C)O)[C@@H](C)O)C(C)C)C(C)C)C(=O)N[C@@H](Cc1c[nH]c2ccccc12)C(=O)N[C@@H](CC(C)C)C(=O)N[C@@H](CC(C)C)C(=O)N[C@@H](CO)C(=O)N[C@H](C(=O)O)[C@@H](C)O)C(=O)O)C(=O)O)C(=O)O)C(=O)O` [Example 43, N^ε24-[(4S)-4-[[(4S)-4-[[(4S)-4-[[(4S)-4-acetamido-4-carboxybutanoyl]amino]-4-carboxybutanoyl]amino]-4-carboxybutanoyl]amino]-4-carboxybutanoyl]-[Val^10,Leu^16,Lys^24,Leu^27,Ser^28]-Glucagon] (H-HSQGTFTSDVSKYLDLRRAQDFVK([γGlu-γGlu-γGlu-γGlu-Ac])WLLST-OH), 0.016 nM; in that of `CC(=O)N[C@@H](CCC(=O)N[C@@H](CCC(=O)N[C@@H](CCC(=O)N[C@@H](CCC(=O)NCCCC[C@H](NC(=O)[C@@H](NC(=O)[C@H](CO)NC(=O)[C@H](CC(C)C)NC(=O)[C@H](CC(C)C)NC(=O)[C@H](Cc1c[nH]c2ccccc12)NC(=O)[C@H](CCC(N)=O)NC(=O)[C@@H](NC(=O)[C@H](Cc1ccccc1)NC(=O)[C@H](CC(=O)O)NC(=O)[C@H](CCC(N)=O)NC(=O)[C@H](C)NC(=O)[C@H](CCCNC(=N)N)NC(=O)[C@H](CCCNC(=N)N)NC(=O)[C@H](CO)NC(=O)[C@H](CC(=O)O)NC(=O)[C@H](CC(C)C)NC(=O)[C@H](Cc1ccc(O)cc1)NC(=O)[C@H](CCCCN)NC(=O)[C@H](CO)NC(=O)[C@H](Cc1ccc(O)cc1)NC(=O)[C@H](CC(=O)O)NC(=O)[C@H](CO)NC(=O)[C@@H](NC(=O)[C@H](Cc1ccccc1)NC(=O)[C@@H](NC(=O)CNC(=O)[C@H](CCC(N)=O)NC(=O)[C@H](CO)NC(=O)[C@@H](N)Cc1c[nH]cn1)[C@@H](C)O)[C@@H](C)O)C(C)C)[C@@H](C)O)C(=O)O)C(=O)O)C(=O)O)C(=O)O)C(=O)O` [Example 51, N^α([Leu^27,Ser^28]-Glucagonyl)-N^ε[(4S)-4-[[(4S)-4-[[(4S)-4-[[(4S)-4-acetamido-4-carboxybutanoyl]amino]-4-carboxybutanoyl]amino]-4-carboxybutanoyl]amino]-4-carboxybutanoyl]Lys], 0.007 nM.
In the case of `CC(=O)N[C@@H](CCC(=O)N[C@@H](CCC(=O)N[C@@H](CCC(=O)N[C@@H](CCC(=O)NCCCC[C@H](NC(=O)[C@@H](NC(=O)[C@H](Cc1ccccc1)NC(=O)[C@H](CC(=O)O)NC(=O)[C@H](C)NC(=O)[C@H](C)NC(=O)[C@H](CCCNC(=N)N)NC(=O)[C@H](CCCNC(=N)N)NC(=O)[C@H](Cc1ccccc1)NC(=O)[C@H](CC(=O)O)NC(=O)[C@H](CC(C)C)NC(=O)[C@H](Cc1ccc(O)cc1)NC(=O)[C@H](CCCCN)NC(=O)[C@H](CO)NC(=O)[C@H](Cc1ccc(O)cc1)NC(=O)[C@H](CC(=O)O)NC(=O)[C@H](CO)NC(=O)[C@@H](NC(=O)[C@H](Cc1ccccc1)NC(=O)[C@@H](NC(=O)CNC(=O)[C@H](Cc1c[nH]cn1)NC(=O)[C@H](CO)NC(=O)[C@@H](N)Cc1c[nH]cn1)[C@@H](C)O)[C@@H](C)O)C(C)C)C(=O)N[C@@H](Cc1c[nH]c2ccccc12)C(=O)N[C@@H](CC(C)C)C(=O)N[C@@H](CC(C)C)C(=O)N[C@@H](CO)C(=O)N[C@H](C(=O)O)[C@@H](C)O)C(=O)O)C(=O)O)C(=O)O)C(=O)O` [Example 12, N^ε24-[(4S)-4-[[(4S)-4-[[(4S)-4-[[(4S)-4-acetamido-4-carboxybutanoyl]amino]-4-carboxybutanoyl]amino]-4-carboxybutanoyl]amino]-4-carboxybutanoyl]-[His3,Phe16,Ala20,Lys24,Leu27,Ser28]-Glucagon] (H-HSHGTFTSDYSKYLDFRRAADFVK([γGlu-γGlu-γGlu-γGlu-Ac])WLLST-OH) it was 0.0103 nM; in that of `CC(=O)N[C@@H](CCC(=O)N[C@@H](CCC(=O)N[C@@H](CCC(=O)N[C@@H](CCC(=O)NCCCC[C@H](NC(=O)[C@@H](NC(=O)[C@H](Cc1ccccc1)NC(=O)[C@H](CC(=O)O)NC(=O)[C@H](C)NC(=O)[C@H](C)NC(=O)[C@H](CCCNC(=N)N)NC(=O)[C@H](CCCNC(=N)N)NC(=O)[C@H](CC(C)C)NC(=O)[C@H](CC(=O)O)NC(=O)[C@H](CC(C)C)NC(=O)[C@H](Cc1ccc(O)cc1)NC(=O)[C@H](CCCNC(=N)N)NC(=O)[C@H](CO)NC(=O)[C@H](Cc1ccc(O)cc1)NC(=O)[C@H](CC(=O)O)NC(=O)[C@H](CO)NC(=O)[C@@H](NC(=O)[C@H](Cc1ccccc1)NC(=O)[C@@H](NC(=O)CNC(=O)[C@H](CCC(N)=O)NC(=O)[C@H](CO)NC(=O)[C@@H](N)Cc1c[nH]cn1)[C@@H](C)O)[C@@H](C)O)C(C)C)C(=O)N[C@@H](Cc1c[nH]c2ccccc12)C(=O)N[C@@H](CC(C)C)C(=O)N[C@@H](CC(C)C)C(=O)N[C@@H](CO)C(=O)N[C@H](C(=O)O)[C@@H](C)O)C(=O)O)C(=O)O)C(=O)O)C(=O)O` [Example 56, N^ε24-[(4S)-4-[[(4S)-4-[[(4S)-4-[[(4S)-4-acetamido-4-carboxybutanoyl]amino]-4-carboxybutanoyl]amino]-4-carboxybutanoyl]amino]-4-carboxybutanoyl]-[Arg^12,Leu^16,Ala^20,Lys^24,Leu^27,Ser^28]-Glucagon] (H-HSQGTFTSDYSRYLDLRRAADFVK([γGlu-γGlu-γGlu-γGlu-Ac])WLLST-OH), 0.02 nM; in that of `CC[C@H](C)[C@H](NC(=O)[C@H](CC(=O)O)NC(=O)[C@H](CC(C)C)NC(=O)[C@H](Cc1ccc(O)cc1)NC(=O)[C@H](CCCCN)NC(=O)[C@H](CO)NC(=O)[C@H](Cc1ccc(O)cc1)NC(=O)[C@H](CC(=O)O)NC(=O)[C@H](CO)NC(=O)[C@@H](NC(=O)[C@H](Cc1ccccc1)NC(=O)[C@@H](NC(=O)CNC(=O)[C@H](Cc1c[nH]cn1)NC(=O)[C@H](CO)NC(=O)[C@@H](N)Cc1c[nH]cn1)[C@@H](C)O)[C@@H](C)O)C(=O)N[C@@H](CCCNC(=N)N)C(=O)N[C@@H](CCCNC(=N)N)C(=O)N[C@@H](C)C(=O)N[C@@H](C)C(=O)N[C@@H](CC(=O)O)C(=O)N[C@@H](Cc1ccccc1)C(=O)N[C@H](C(=O)N[C@@H](CCCCNC(=O)CC[C@H](NC(=O)CC[C@H](NC(=O)CC[C@H](NC(=O)CC[C@H](NC(C)=O)C(=O)O)C(=O)O)C(=O)O)C(=O)O)C(=O)N[C@@H](Cc1c[nH]c2ccccc12)C(=O)N[C@@H](CC(C)C)C(=O)N[C@@H](CC(C)C)C(=O)N[C@@H](CO)C(=O)N[C@H](C(=O)O)[C@@H](C)O)C(C)C` [Example 11] (H-HSHGTFTSDYSKYLDIRRAADFVK([γGlu-γGlu-γGlu-γGlu-Ac])WLLST-OH), 0.0124 nM.
